Assay results from ChEMBL document CHEMBL1138640, “Synthesis, radiolabeling, and preliminary biological evaluation of [3H]-1-[(S)-N,O-bis-(isoquinolinesulfonyl)-N-methyl-tyrosyl]-4-(o-tolyl)-piperazine, a potent antagonist radioligand for the P2X7 receptor” (Bioorg Med Chem Lett, 2004).

Key:
Cell line = assay: inhibitory concentration against ATP-dependant calcium influx across plasma membrane of human monocytes; assay type: functional, cell-based
[1] = target: T1, P2X purinoceptor 7 (Homo sapiens) (UniProt Q99572); settings: HEK293
T1 sequence (whole entry): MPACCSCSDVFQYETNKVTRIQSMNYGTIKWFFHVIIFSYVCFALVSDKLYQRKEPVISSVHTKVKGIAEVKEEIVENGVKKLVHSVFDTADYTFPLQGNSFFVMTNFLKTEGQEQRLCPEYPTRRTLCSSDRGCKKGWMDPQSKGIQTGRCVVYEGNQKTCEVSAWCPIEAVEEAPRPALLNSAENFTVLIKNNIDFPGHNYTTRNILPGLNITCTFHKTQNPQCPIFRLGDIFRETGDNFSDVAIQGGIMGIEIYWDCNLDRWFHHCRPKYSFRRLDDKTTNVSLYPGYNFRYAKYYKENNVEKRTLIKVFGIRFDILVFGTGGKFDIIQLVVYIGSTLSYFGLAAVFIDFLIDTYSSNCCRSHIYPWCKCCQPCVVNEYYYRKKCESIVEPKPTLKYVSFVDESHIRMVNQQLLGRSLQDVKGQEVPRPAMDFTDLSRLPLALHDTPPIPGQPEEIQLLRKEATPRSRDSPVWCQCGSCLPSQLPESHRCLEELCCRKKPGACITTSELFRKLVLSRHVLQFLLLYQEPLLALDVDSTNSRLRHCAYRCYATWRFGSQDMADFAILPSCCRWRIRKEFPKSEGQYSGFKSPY
Description: Association rate constant towards P2X purinoceptor 7 expressed in HEK 293 cells

[2] = target: T1, P2X purinoceptor 7 (Homo sapiens); settings: HEK293, 1 uM
Description: Dissociation rate constant for P2X purinoceptor 7 expressed in HEK 293 cells at 1 uM

P2X purinoceptor 7 [3] = target: T2, P2X purinoceptor 7 (Homo sapiens, UniProt Q99572); assay: Maximum binding affinity towards P2X purinoceptor 7 expressed in HEK 293 cells; assay type: cell-based, HEK293
T2 sequence (Q99572 whole entry): T1 sequence (whole entry)

P2X purinoceptor 7 [4] = target: T2, P2X purinoceptor 7; assay: Equilibrium constant for P2X purinoceptor 7 expressed in HEK 293 cells at 1 uM; assay type: cell-based, HEK293

IC50 (Cell line) [nM] | k obs [1] [s⁻¹] | K-1 [2] [min⁻¹] | Kd (P2X purinoceptor 7 [3]) [nM] | Kd (P2X purinoceptor 7 [4]) [nM] | SMILES
15 | 0.000767 | 0.025 | 3.57 | 3.57 | Cc1ccccc1N1CCN(C(=O)[C@H](Cc2ccc(OS(=O)(=O)c3cccc4cnccc34)cc2)N(C)S(=O)(=O)c2cccc3cnccc23)CC1
51 | – | – | – | – | CN([C@@H](Cc1ccc(OS(=O)(=O)c2cccc3cnccc23)cc1)C(=O)N1CCN(c2ccccc2)CC1)S(=O)(=O)c1cccc2cnccc12
